Experimental data: PubChem BioAssay (NCI)
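All cell lines were grown in 96-well plates and treated with compound for 48 hours. At the TGI there is no net growth.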

Assays:
Test in all cases: growth of human tumour cells (NCI), 48 h
786-0 renal = test system: 786-0 renal
A498 renal = test system: A498 renal
A549 NSCLC = test system: A549 NSCLC
ACHN renal = test system: ACHN renal
CAKI-1 renal = test system: CAKI-1 renal
CCRF-CEM leukemia = test system: CCRF-CEM leukemia
COLO 205 colon = test system: COLO 205 colon
DLD-1 colon = test system: DLD-1 colon
DMS 114 small cell lung = test system: DMS 114 small cell lung
DMS 273 small cell lung = test system: DMS 273 small cell lung
EKVX NSCLC = test system: EKVX NSCLC
HCC-2998 colon = test system: HCC-2998 colon
HCT-116 colon = test system: HCT-116 colon
HCT-15 colon = test system: HCT-15 colon
HL-60(TB) leukemia = test system: HL-60(TB) leukemia
HOP-18 NSCLC = test system: HOP-18 NSCLC
HOP-62 NSCLC = test system: HOP-62 NSCLC
HOP-92 NSCLC = test system: HOP-92 NSCLC
HT29 colon = test system: HT29 colon
IGROV1 ovarian = test system: IGROV1 ovarian
K-562 leukemia = test system: K-562 leukemia
KM12 colon = test system: KM12 colon
KM20L2 colon = test system: KM20L2 colon
LOX IMVI melanoma = test system: LOX IMVI melanoma
LXFL 529 NSCLC = test system: LXFL 529 NSCLC
M14 melanoma = test system: M14 melanoma
M19-MEL melanoma = test system: M19-MEL melanoma
MALME-3M melanoma = test system: MALME-3M melanoma
MOLT-4 leukemia = test system: MOLT-4 leukemia
NCI-H226 lung = test system: NCI-H226 lung
NCI-H23 lung = test system: NCI-H23 lung
NCI-H460 lung = test system: NCI-H460 lung
NCI-H522 lung = test system: NCI-H522 lung
OVCAR-3 ovarian = test system: OVCAR-3 ovarian
OVCAR-4 ovarian = test system: OVCAR-4 ovarian
OVCAR-8 ovarian = test system: OVCAR-8 ovarian
RPMI-8226 leukemia = test system: RPMI-8226 leukemia
RXF 393 renal = test system: RXF 393 renal
RXF-631 renal = test system: RXF-631 renal
SF-268 CNS = test system: SF-268 CNS
SF-295 CNS = test system: SF-295 CNS
SF-539 CNS = test system: SF-539 CNS
SK-MEL-2 melanoma = test system: SK-MEL-2 melanoma
SK-MEL-28 melanoma = test system: SK-MEL-28 melanoma
SK-MEL-5 melanoma = test system: SK-MEL-5 melanoma
SK-OV-3 ovarian = test system: SK-OV-3 ovarian
SN12C renal = test system: SN12C renal
SNB-19 CNS = test system: SNB-19 CNS
SNB-75 CNS = test system: SNB-75 CNS
SNB-78 CNS = test system: SNB-78 CNS
SR leukemia = test system: SR leukemia
SW-620 colon = test system: SW-620 colon
TK-10 renal = test system: TK-10 renal
U251 CNS = test system: U251 CNS
UACC-257 melanoma = test system: UACC-257 melanoma
UACC-62 melanoma = test system: UACC-62 melanoma
UO-31 renal = test system: UO-31 renal
XF 498 CNS = test system: XF 498 CNS
OVCAR-5 ovarian = test system: OVCAR-5 ovarian

Q: How did the TGI (786-0 renal) turn out when `O=[N+]([O-])c1ccc(N=Nc2c(O)[nH]c3ccc(Br)cc23)cc1` was run?
A: 25.2 µM

Q: And the TGI (A498 renal)?
A: 49.1 µM

Q: And the TGI (A549 NSCLC)?
A: 44.9 µM

Q: And the TGI (ACHN renal)?
A: 42.7 µM

Q: What about the TGI (CAKI-1 renal) of the same compound?
A: > 58.4 µM

Q: What about the TGI (CCRF-CEM leukemia) of the same compound?
A: > 49.1 µM

Q: What about the TGI (COLO 205 colon) of the same compound?
A: > 68.7 µM

Q: And the TGI (DLD-1 colon)?
A: > 46.8 µM

Q: And the TGI (DMS 114 small cell lung)?
A: 47.7 µM

Q: What about the TGI (DMS 273 small cell lung) of the same compound?
A: 24 µM

Q: And the TGI (EKVX NSCLC)?
A: 58.9 µM

Q: What about the TGI (HCC-2998 colon) of the same compound?
A: > 100 µM

Q: What about the TGI (HCT-116 colon) of the same compound?
A: 80.1 µM

Q: What about the TGI (HCT-15 colon) of the same compound?
A: > 74.3 µM

Q: What about the TGI (HL-60(TB) leukemia) of the same compound?
A: 25.2 µM

Q: What about the TGI (HOP-18 NSCLC) of the same compound?
A: 40.6 µM

Q: What about the TGI (HOP-62 NSCLC) of the same compound?
A: 33.8 µM

Q: What about the TGI (HOP-92 NSCLC) of the same compound?
A: 26.5 µM

Q: And the TGI (HT29 colon)?
A: > 100 µM

Q: And the TGI (IGROV1 ovarian)?
A: > 53.2 µM

Q: And the TGI (K-562 leukemia)?
A: > 43 µM

Q: And the TGI (KM12 colon)?
A: > 100 µM

Q: And the TGI (KM20L2 colon)?
A: > 100 µM

Q: What about the TGI (LOX IMVI melanoma) of the same compound?
A: 48.8 µM

Q: And the TGI (LXFL 529 NSCLC)?
A: > 68.7 µM

Q: What about the TGI (M14 melanoma) of the same compound?
A: > 52.8 µM

Q: And the TGI (M19-MEL melanoma)?
A: 34.7 µM

Q: What about the TGI (MALME-3M melanoma) of the same compound?
A: 58 µM

Q: And the TGI (MOLT-4 leukemia)?
A: > 51.7 µM

Q: And the TGI (NCI-H226 lung)?
A: 37.2 µM

Q: What about the TGI (NCI-H23 lung) of the same compound?
A: > 51.3 µM

Q: And the TGI (NCI-H460 lung)?
A: > 46.5 µM

Q: What about the TGI (NCI-H522 lung) of the same compound?
A: > 87.7 µM

Q: What about the TGI (OVCAR-3 ovarian) of the same compound?
A: 45.9 µM

Q: What about the TGI (OVCAR-4 ovarian) of the same compound?
A: 33.4 µM

Q: What about the TGI (OVCAR-8 ovarian) of the same compound?
A: 28.3 µM

Q: And the TGI (RPMI-8226 leukemia)?
A: 45.6 µM

Q: And the TGI (RXF 393 renal)?
A: 35.6 µM

Q: What about the TGI (RXF-631 renal) of the same compound?
A: 33 µM

Q: And the TGI (SF-268 CNS)?
A: 34.8 µM

Q: What about the TGI (SF-295 CNS) of the same compound?
A: 25 µM

Q: And the TGI (SF-539 CNS)?
A: 32.1 µM

Q: And the TGI (SK-MEL-2 melanoma)?
A: 99.2 µM

Q: What about the TGI (SK-MEL-28 melanoma) of the same compound?
A: 32.9 µM

Q: What about the TGI (SK-MEL-5 melanoma) of the same compound?
A: > 68 µM

Q: And the TGI (SK-OV-3 ovarian)?
A: 45.6 µM

Q: And the TGI (SN12C renal)?
A: > 31.6 µM

Q: And the TGI (SNB-19 CNS)?
A: 36.6 µM

Q: What about the TGI (SNB-75 CNS) of the same compound?
A: > 48.1 µM

Q: What about the TGI (SNB-78 CNS) of the same compound?
A: 42.3 µM

Q: What about the TGI (SR leukemia) of the same compound?
A: > 53.9 µM

Q: And the TGI (SW-620 colon)?
A: > 100 µM

Q: And the TGI (TK-10 renal)?
A: 36 µM

Q: And the TGI (U251 CNS)?
A: 38.2 µM

Q: What about the TGI (UACC-257 melanoma) of the same compound?
A: 43.4 µM

Q: And the TGI (UACC-62 melanoma)?
A: > 51.2 µM

Q: What about the TGI (UO-31 renal) of the same compound?
A: > 73.5 µM

Q: And the TGI (XF 498 CNS)?
A: 53.7 µM

Q: With `Nc1nc(-c2ccccc2)cc(-c2ccccc2O)n1` as the compound, how does the TGI (786-0 renal) read?
A: > 100 µM

Q: What about the TGI (A498 renal) of the same compound?
A: > 100 µM

Q: And the TGI (A549 NSCLC)?
A: > 100 µM

Q: What about the TGI (ACHN renal) of the same compound?
A: > 100 µM

Q: And the TGI (CAKI-1 renal)?
A: > 100 µM

Q: And the TGI (CCRF-CEM leukemia)?
A: > 100 µM

Q: And the TGI (COLO 205 colon)?
A: > 100 µM

Q: What about the TGI (DLD-1 colon) of the same compound?
A: > 100 µM

Q: And the TGI (DMS 114 small cell lung)?
A: > 100 µM

Q: And the TGI (DMS 273 small cell lung)?
A: > 100 µM

Q: What about the TGI (EKVX NSCLC) of the same compound?
A: > 100 µM

Q: What about the TGI (HCC-2998 colon) of the same compound?
A: > 100 µM

Q: And the TGI (HCT-116 colon)?
A: 49 µM

Q: And the TGI (HL-60(TB) leukemia)?
A: 43.5 µM

Q: What about the TGI (HOP-18 NSCLC) of the same compound?
A: > 100 µM

Q: What about the TGI (HOP-62 NSCLC) of the same compound?
A: 74.9 µM

Q: And the TGI (HOP-92 NSCLC)?
A: > 100 µM

Q: What about the TGI (HT29 colon) of the same compound?
A: > 100 µM

Q: What about the TGI (IGROV1 ovarian) of the same compound?
A: > 100 µM

Q: And the TGI (K-562 leukemia)?
A: > 100 µM

Q: What about the TGI (KM12 colon) of the same compound?
A: 79.5 µM

Q: And the TGI (KM20L2 colon)?
A: > 100 µM

Q: What about the TGI (LOX IMVI melanoma) of the same compound?
A: > 100 µM

Q: What about the TGI (LXFL 529 NSCLC) of the same compound?
A: > 100 µM

Q: What about the TGI (M14 melanoma) of the same compound?
A: > 100 µM

Q: And the TGI (M19-MEL melanoma)?
A: > 100 µM

Q: And the TGI (MALME-3M melanoma)?
A: > 100 µM

Q: And the TGI (MOLT-4 leukemia)?
A: 80.2 µM

Q: What about the TGI (NCI-H226 lung) of the same compound?
A: 53.2 µM

Q: What about the TGI (NCI-H23 lung) of the same compound?
A: > 100 µM

Q: What about the TGI (NCI-H460 lung) of the same compound?
A: > 100 µM

Q: And the TGI (NCI-H522 lung)?
A: > 100 µM

Q: What about the TGI (OVCAR-3 ovarian) of the same compound?
A: > 100 µM

Q: And the TGI (OVCAR-4 ovarian)?
A: > 100 µM

Q: And the TGI (OVCAR-5 ovarian)?
A: 68.2 µM

Q: And the TGI (OVCAR-8 ovarian)?
A: > 100 µM

Q: And the TGI (RPMI-8226 leukemia)?
A: 75.8 µM

Q: And the TGI (RXF 393 renal)?
A: 53.9 µM

Q: What about the TGI (RXF-631 renal) of the same compound?
A: > 100 µM

Q: What about the TGI (SF-268 CNS) of the same compound?
A: > 100 µM

Q: What about the TGI (SF-295 CNS) of the same compound?
A: > 100 µM

Q: What about the TGI (SF-539 CNS) of the same compound?
A: > 100 µM

Q: What about the TGI (SK-MEL-28 melanoma) of the same compound?
A: > 100 µM

Q: And the TGI (SK-OV-3 ovarian)?
A: > 100 µM

Q: What about the TGI (SN12C renal) of the same compound?
A: > 100 µM

Q: And the TGI (SNB-19 CNS)?
A: > 100 µM

Q: And the TGI (SNB-75 CNS)?
A: 82.4 µM

Q: And the TGI (SNB-78 CNS)?
A: > 100 µM

Q: And the TGI (SR leukemia)?
A: > 100 µM

Q: What about the TGI (SW-620 colon) of the same compound?
A: > 100 µM

Q: And the TGI (TK-10 renal)?
A: 98.2 µM

Q: What about the TGI (U251 CNS) of the same compound?
A: > 100 µM

Q: What about the TGI (UACC-257 melanoma) of the same compound?
A: > 100 µM

Q: And the TGI (UACC-62 melanoma)?
A: > 100 µM

Q: And the TGI (UO-31 renal)?
A: 28.7 µM

Q: What about the TGI (XF 498 CNS) of the same compound?
A: > 100 µM
